Data on three molecules can be found in US20070082928A1, “Method for treating anxiety disorders, substance abuse/dependence, binge-eating disorders, insomnia and drug-induced flashbacks” (priority 2005, published 2007).

SMILES strings stand for the structures.

Holding throughout (format): in vivo, human
The subject of series [1] is Person with GAD anxiety symptoms. Briefly: Case history 3: donepezil in a patient with GAD anxiety symptoms persisting after MDD. The text has this: A person complained about insomnia, restlessness, tension, headaches, gastric symptoms, upset stomach, dizziness, fatigue, loss of appetite, and libido deficit. A person has been married for 13 years. Their spouse is a person working as an assistant director. The couple was well functioning, with two children, a child and a child in good health. A person was in good physical health and had no significant medical antecedent. A person had no previous psychiatric antecedent, nor any family history of mental disorders. […] […] a person is the youngest of 14 brothers and sisters.
A person was hospitalized in the Department of Psychiatry at Saint-Antoine Hospital and treated for MDD with venlafaxine from July 15 to Aug. […] Their anxiety consisted of excessive worrying, restlessness, tension, fatigue, loss of concentration, irritability, severe muscle tension and difficulty falling asleep. These symptoms met the GAD DSM IV criteria and persisted during the depressive episode and also when they no longer met the criteria for MDD. […] 9, 2005 to treat their anxiety symptoms. […] On Sep.

Series [2] concerns Person with post-traumatic stress disorder (PTSD). Briefly: Case History 1: donepezil in a rape victim with PTSD after suspected GHB intake. The text has this: A person had been living in NYC for their work since January 2005. On Jun. 15, 2005, they met some friends after dinner and went dancing with them. They experienced a strange sensation late in the evening after drinking a glass of champagne. They remembered feeling drowsy and confused. They had to stop dancing because of a severe sedation and took a taxi. A […] they didn't know until now accompanied them to their apartment, which was unusual for them.
They didn't remember anything about the taxi drive and their trip back home. They remembered being with an unknown person and strangely being led down on their couch in their living room and looking at them.
Thereafter they repeatedly saw themself waking up in the morning and looking at their bed where they had discovered a preservative, a proof that a sexual behaviour had occurred between 2 and 6 am.
They experienced terrifying nightmares and repetitive uncontrolled behaviour consisting of looking at […] waking up alone with a desperate feeling of being sexually abused and of loneliness. […] About the evening and the rape they remembered only their inability to move, refusing sexual advances of the unknown person, and feeling uncomfortable because of their unusual behaviour.
On Jun. 20, 2005, they consulted in the Department of Psychiatry at Saint-Antoine Hospital in Paris. […] A legal procedure was initiated in NYC before coming back to Paris. […] A toxicological analysis was performed using hair sample for detection of the suspected drug GHB.
During the initial interview, they were unable to give any detail about the evening and the night of the rape. A person requested a method to decrease their anxiety symptoms, insomnia and nightmares associated with the traumatic event. After a discussion about the case, it was decided on Jun.

Series [3] has as its system Person with Generalized Anxiety (GAD), PTSD and cannabis dependence. Put plainly: Case History 2: donepezil in a patient with GAD, PTSD, cannabis dependence, alcohol dependence and binge-eating disorder.
From the text: a person has no other psychiatric antecedent.
Despite them on-going biweekly psychotherapy, they continued to abuse cannabis at about 2 to 3 joints a day.
The mark [4] stands for this setting: 5 mg once a day, after one week, on ongoing venlafaxine.
Where [5] appears, read: two weeks after increase to 5 mg b.i.d.
The mark [6] stands for this setting: 5 mg once a day, after one week.
Where [7] appears, read: 5 mg once a day, patient report.

`COc1cc2c(cc1OC)C(=O)C(CC1CCN(Cc3ccccc3)CC1)C2.Cl` (racemic) [donepezil, (±)-2,3-dihydro-5,6-dimethoxy-2-[[1-(phenylmethyl)-4-piperidinyl]methyl]-1H-inden-1-one hydrochloride]: in series [1] (setting [4]), the anti-anxiety effect result was “definite anti-anxiety effect” and the side effects result is on record as “No side effects were observed”. In addition, the “anxiety symptoms / return to work” value in series [1] (6 days after increase to 5 mg b.i.d.) was “able to return to work without any anxious symptoms”. Moreover, in series [2] (5 mg once a day, after 7 days), the “recall of details of the traumatic event” value is recorded as “some of the details of the post-traumatic event”; the sleep and nightmares entry was “slept better without nightmares”. Also, the anxiety entry in series [2] (5 mg once a day, after one week of treatment) was “began to feel less anxious”. Further, in series [2] (setting [5]), the anxiety and tension entry is reported as “no more anxious nor tense”; the sleep result is reported as “returned to normal without nightmares”. In series [3] (5 mg once a day), the alcohol intake entry is recorded as “significantly produced a decrease”; the “verbal fluency and cognitive performances” value was “did not improve”. In addition, in series [3] (setting [6]), the binge-eating disorder result is listed as “completely disappeared” and the nightmares entry is “completely disappeared”. In addition, the “craving for caffeine, nicotine, cannabis and binge-eating” value in series [3] (5 mg once a day, follow-up) is on record as “significantly improved to the extent of disappearing”. Besides, in series [3] (5 mg once a day, follow-up August 30 and Sept. 2, 2005), the “GAD anxiety symptoms (nervousness, muscle tension, restlessness, anxiety, worry, insomnia, and tremor)” value was “much improved”. In series [3] (setting [7]), the euphoria result is listed as “no longer euphoric”, the judgement entry is on record as “significantly improved”, the motor coordination entry was “improved” and the “sensations of slowed time” value was “no more sensations of slowed time”. Moreover, the social withdrawal result in series [3] (setting [7]) is “no longer socially withdrawn”. The cannabis smoking result in series [3] (5 mg once a day, before: 2 to 3 joints a day) is “completely stop cannabis smoking without any withdrawal symptoms, nor craving symptoms”. In series [3] (increased to 5 mg b.i.d.), the “effect of dose increase (nightmares related to drug withdrawal)” value was “further improvement with disappearance of nightmares”.

Turning to `CN1CCN2c3ncccc3Cc3ccccc3C2C1` (stereo not drawn) [mirtazapine], the “depressive symptoms (MDD)” value in series [3] (15 mg h.s. with biweekly psychotherapy, after 2 months of treatment) is “complete recovery”.

Turning to `COc1ccc(C(CN(C)C)C2(O)CCCCC2)cc1` (stereo not drawn) [venlafaxine], the anxiety symptoms result in series [1] (ongoing venlafaxine 100 mg t.i.d.) is listed as “did not respond”. In addition, in series [1] (treated from July 15 to Aug. 8, 2005, in hospital), the “depression (MDD)” value was “recovered completely”.
